Where “and” joins values, the source holds several entries; their conditions need not be identical. Equal values may be shown once.
System: BDF1 mice, Adenocarcinoma 755 s.c., tumor weight T/C
Test: NCI In Vivo Anticancer Drug Screen. Data for tumor model Adenocarcinoma 755 (subcutaneous) in B6D2F1 (BDF1) mice
Conditions: endpoint: mean tumor weight, higher = larger tumour
Protocol: The antitumor activity of compounds was measured in mice bearing transplantable tumors. Survival or tumor size were measured and the results are expressed as the measurement made in the treated group (T) divided by the measurement made in the vehicle treated control group (C). The tumor model used in this assay is Adenocarcinoma 755 (subcutaneous) in B6D2F1 (BDF1) mice

[1] = dose: 30.0 mg/kg/injection, schedule: Q01DX011 (ip), vehicle: carboxymethylcellulose (CMC)
[2] = dose: 2.0 mg/kg/injection, schedule: Q01DX011 (ip), vehicle: methylcellulose (MC)
[3] = dose: 1.0 mg/kg/injection, schedule: Q01DX011 (ip), vehicle: methylcellulose (MC)
[4] = dose: 10.0 mg/kg/injection, schedule: Q01DX011 (ip), vehicle: carboxymethylcellulose (CMC)
[5] = dose: 20.0 mg/kg/injection, schedule: Q01DX011 (ip), vehicle: carboxymethylcellulose (CMC)
[6] = dose: 25.0 mg/kg/injection, schedule: Q01DX011 (ip), vehicle: carboxymethylcellulose (CMC)
[7] = dose: 75.0 mg/kg/injection, schedule: Q01DX011 (ip), vehicle: carboxymethylcellulose (CMC)

C[N+](C)(C)c1ncnc2nc[nH]c12
T/C (dose: 1.25 mg/kg/injection, schedule: Q01DX011 (ip), vehicle: saline): 89 % of control and 77 % of control | T/C (dose: 2.5 mg/kg/injection, schedule: Q01DX011 (ip), vehicle: saline): 61 % of control and 75 % of control and 86 % of control | T/C (dose: 11.25 mg/kg/injection, schedule: Q01DX011 (ip), vehicle: saline): 44 % of control | T/C (dose: 20.0 mg/kg/injection, schedule: Q01DX011 (ip), vehicle: saline): 6 % of control and 12 % of control | T/C (dose: 22.5 mg/kg/injection, schedule: Q01DX011 (ip), vehicle: saline): 3 % of control | T/C (dose: 40.0 mg/kg/injection, schedule: Q01DX011 (ip), vehicle: saline): 1 % of control and 3 % of control | T/C (dose: 45.0 mg/kg/injection, schedule: Q01DX011 (ip), vehicle: saline): 1 % of control | T/C (dose: 80.0 mg/kg/injection, schedule: Q01DX011 (ip), vehicle: saline): 1 % of control and 4 % of control | T/C (dose: 90.0 mg/kg/injection, schedule: Q01DX011 (ip), vehicle: saline): 1 % of control | T/C (dose: 160.0 mg/kg/injection, schedule: Q01DX011 (ip), vehicle: saline): 1 % of control and 3 % of control

Cn1c(=O)c2c(nc(N/N=C/c3ccccc3Br)n2C)n(C)c1=O
T/C [1]: 96 % of control | T/C (dose: 120.0 mg/kg/injection, schedule: Q01DX011 (ip), vehicle: carboxymethylcellulose (CMC)): 101 % of control | T/C (dose: 240.0 mg/kg/injection, schedule: Q01DX011 (ip), vehicle: carboxymethylcellulose (CMC)): 89 % of control

CC(C)CSc1nc(N)nc2nc[nH]c12
T/C [2]: 46 % of control | T/C (dose: 4.0 mg/kg/injection, schedule: Q01DX011 (ip), vehicle: methylcellulose (MC)): 30 % of control | T/C (dose: 8.0 mg/kg/injection, schedule: Q01DX011 (ip), vehicle: methylcellulose (MC)): 10 % of control | T/C (dose: 16.0 mg/kg/injection, schedule: Q01DX011 (ip), vehicle: methylcellulose (MC)): 6 % of control | T/C (dose: 32.0 mg/kg/injection, schedule: Q01DX011 (ip), vehicle: methylcellulose (MC)): 5 % of control | T/C (dose: 64.0 mg/kg/injection, schedule: Q01DX011 (ip), vehicle: methylcellulose (MC)): 4 % of control

COc1ccc2c(c1)/C(=C/CCN(C)C)c1ccccc1S2
T/C [3]: 87 % of control | T/C [2]: 87 % of control | T/C (dose: 3.0 mg/kg/injection, schedule: Q01DX011 (ip), vehicle: methylcellulose (MC)): 27 % of control | T/C (dose: 4.0 mg/kg/injection, schedule: Q01DX011 (ip), vehicle: carboxymethylcellulose (CMC)): 93 % of control | T/C (dose: 7.0 mg/kg/injection, schedule: Q01DX011 (ip), vehicle: carboxymethylcellulose (CMC)): 29 % of control | T/C (dose: 7.0 mg/kg/injection, schedule: Q01DX011 (ip), vehicle: methylcellulose (MC)): 42 % of control | T/C (dose: 15.0 mg/kg/injection, schedule: Q01DX011 (ip), vehicle: carboxymethylcellulose (CMC)): 67 % of control | T/C (dose: 15.0 mg/kg/injection, schedule: Q01DX011 (ip), vehicle: methylcellulose (MC)): 39 % of control | T/C [1]: 47 % of control

CCc1nc(N)nc(N)c1-c1ccc(Cl)c(Cl)c1
T/C (dose: 0.5 mg/kg/injection, schedule: Q01DX011 (ip), vehicle: methylcellulose (MC)): 51 % of control | T/C [3]: 62 % of control and 71 % of control | T/C [2]: 52 % of control

CCC(=O)c1cc2c(cc1CC)C(C)(C)CCC2(C)C
T/C (dose: 100.0 mg/kg/injection, schedule: Q01DX011 (ip), vehicle: carboxymethylcellulose (CMC)): 53 % of control and 63 % of control

CN(CCO)/N=N/c1nc[nH]c1C(N)=O
T/C (dose: 42.0 mg/kg/injection, schedule: Q01DX011 (ip), vehicle: carboxymethylcellulose (CMC)): 60 % of control | T/C (dose: 93.0 mg/kg/injection, schedule: Q01DX011 (ip), vehicle: carboxymethylcellulose (CMC)): 57 % of control | T/C (dose: 187.0 mg/kg/injection, schedule: Q01DX011 (ip), vehicle: carboxymethylcellulose (CMC)): 26 % of control

Cc1cc(=O)c2c(C)cccc2[nH]1
T/C [4]: 112 % of control | T/C (dose: 10.0 mg/kg/injection, schedule: Q01DX011 (ip), vehicle: methylcellulose (MC)): 60 % of control | T/C [5]: 105 % of control | T/C (dose: 20.0 mg/kg/injection, schedule: Q01DX011 (ip), vehicle: methylcellulose (MC)): 59 % of control | T/C (dose: 40.0 mg/kg/injection, schedule: Q01DX011 (ip), vehicle: carboxymethylcellulose (CMC)): 86 % of control | T/C (dose: 40.0 mg/kg/injection, schedule: Q01DX011 (ip), vehicle: methylcellulose (MC)): 72 % of control | T/C (dose: 80.0 mg/kg/injection, schedule: Q01DX011 (ip), vehicle: carboxymethylcellulose (CMC)): 58 % of control and 60 % of control and 75 % of control | T/C (dose: 80.0 mg/kg/injection, schedule: Q01DX011 (ip), vehicle: methylcellulose (MC)): 57 % of control | T/C (dose: 160.0 mg/kg/injection, schedule: Q01DX011 (ip), vehicle: carboxymethylcellulose (CMC)): 106 % of control | T/C (dose: 320.0 mg/kg/injection, schedule: Q01DX011 (ip), vehicle: carboxymethylcellulose (CMC)): 106 % of control

CCCCn1cnc2c(=S)nc[nH]c21
T/C (dose: 2.5 mg/kg/injection, schedule: Q01DX011 (ip), vehicle: carboxymethylcellulose (CMC)): 62 % of control | T/C (dose: 5.0 mg/kg/injection, schedule: Q01DX011 (ip), vehicle: carboxymethylcellulose (CMC)): 25 % of control | T/C (dose: 5.0 mg/kg/injection, schedule: Q01DX011 (ip), vehicle: olive oil, sesame oil, peanut oil): 41 % of control | T/C (dose: 5.0 mg/kg/injection, schedule: Q#A X022 (ip), vehicle: carboxymethylcellulose (CMC)): 4 % of control | T/C (dose: 8.0 mg/kg/injection, schedule: Q01DX011 (ip), vehicle: carboxymethylcellulose (CMC)): 32 % of control | T/C (dose: 10.0 mg/kg/injection, schedule: Q01DX006 (iv), vehicle: carboxymethylcellulose (CMC)): 20 % of control | T/C (dose: 10.0 mg/kg/injection, schedule: Q01DX011 (im), vehicle: carboxymethylcellulose (CMC)): 5 % of control | T/C [4]: 2 % of control | T/C (dose: 10.0 mg/kg/injection, schedule: Q01DX011 (ip), vehicle: olive oil, sesame oil, peanut oil): 14 % of control | T/C (dose: 10.0 mg/kg/injection, schedule: Q#A X022 (ip), vehicle: carboxymethylcellulose (CMC)): 1 % of control | T/C (dose: 16.0 mg/kg/injection, schedule: Q01DX011 (ip), vehicle: carboxymethylcellulose (CMC)): 8 % of control | T/C (dose: 20.0 mg/kg/injection, schedule: Q01DX006 (iv), vehicle: carboxymethylcellulose (CMC)): 6 % of control | T/C (dose: 20.0 mg/kg/injection, schedule: Q01DX011 (im), vehicle: carboxymethylcellulose (CMC)): 2 % of control | T/C [5]: 1 % of control | T/C (dose: 20.0 mg/kg/injection, schedule: Q#A X022 (ip), vehicle: carboxymethylcellulose (CMC)): 2 % of control | T/C [6]: 6 % of control | T/C (dose: 27.0 mg/kg/injection, schedule: Q01DX001 (ip), vehicle: carboxymethylcellulose (CMC)): 73 % of control | T/C (dose: 32.0 mg/kg/injection, schedule: Q01DX011 (ip), vehicle: carboxymethylcellulose (CMC)): 3 % of control | T/C (dose: 40.0 mg/kg/injection, schedule: Q01DX006 (iv), vehicle: carboxymethylcellulose (CMC)): 1 % of control | T/C (dose: 40.0 mg/kg/injection, schedule: Q01DX011 (im), vehicle: carboxymethylcellulose (CMC)): 2 % of control | T/C (dose: 40.0 mg/kg/injection, schedule: Q#A X022 (ip), vehicle: carboxymethylcellulose (CMC)): 1 % of control | T/C (dose: 54.0 mg/kg/injection, schedule: Q01DX001 (ip), vehicle: carboxymethylcellulose (CMC)): 59 % of control | T/C (dose: 64.0 mg/kg/injection, schedule: Q01DX011 (ip), vehicle: carboxymethylcellulose (CMC)): 3 % of control | T/C [7]: 4 % of control | T/C (dose: 107.0 mg/kg/injection, schedule: Q01DX001 (ip), vehicle: carboxymethylcellulose (CMC)): 8 % of control | T/C (dose: 214.0 mg/kg/injection, schedule: Q01DX001 (ip), vehicle: carboxymethylcellulose (CMC)): 5 % of control

O=c1[nH]c(S(=O)(=O)F)nc2nc[nH]c12
T/C [6]: 104 % of control | T/C [7]: 53 % of control

Nc1cc(C(=O)O)nc(N)n1
T/C (dose: 31.0 mg/kg/injection, schedule: Q01DX011 (ip), vehicle: methylcellulose (MC)): 68 % of control

CCCn1cnc2c(=S)nc(N)[nH]c21
T/C (dose: 0.03 mg/kg/injection, schedule: Q01DX011 (ip), vehicle: methylcellulose (MC)): 103 % of control | T/C (dose: 0.06 mg/kg/injection, schedule: Q01DX011 (ip), vehicle: methylcellulose (MC)): 82 % of control | T/C (dose: 0.11 mg/kg/injection, schedule: Q01DX011 (ip), vehicle: methylcellulose (MC)): 45 % of control | T/C (dose: 0.22 mg/kg/injection, schedule: Q01DX011 (ip), vehicle: methylcellulose (MC)): 6 % of control and 7 % of control | T/C (dose: 0.44 mg/kg/injection, schedule: Q01DX011 (ip), vehicle: methylcellulose (MC)): 8 % of control | T/C (dose: 0.88 mg/kg/injection, schedule: Q01DX011 (ip), vehicle: methylcellulose (MC)): 4 % of control | T/C (dose: 1.75 mg/kg/injection, schedule: Q01DX011 (ip), vehicle: methylcellulose (MC)): 4 % of control
